Laboratory results taken from patent publication US8415469B2, “Compounds and methods for kinase modulation, and indications therefor” (Plexxikon Inc., priority 2005, dated 2013).
pIC50: −log10 of the molar value.

Experiments:
Assay type in all cases: biochemical
[1] = target: T1, Btk (Homo sapiens, UniProt Q06187); test: Z'-Lyte FRET kinase assay (Invitrogen), Btk; details: read-out: IC50, activity toward kinase Btk
T1 construct: purchased Invitrogen (assay run by Invitrogen)

[2] = target: T2, FGFR1 (Homo sapiens, UniProt P11362, C488A/C584S); test: AlphaScreen kinase assay, FGFR1; details: read-out: IC50, activity toward kinase FGFR
T2 construct: P1351.pET N6 BI-PTP FGFR A458-E765-X C488A, C584S; made in house; host or cells: E. coli (PTP1B co-expressed)
T2 sequence (P11362 458-765 C488A/C584S): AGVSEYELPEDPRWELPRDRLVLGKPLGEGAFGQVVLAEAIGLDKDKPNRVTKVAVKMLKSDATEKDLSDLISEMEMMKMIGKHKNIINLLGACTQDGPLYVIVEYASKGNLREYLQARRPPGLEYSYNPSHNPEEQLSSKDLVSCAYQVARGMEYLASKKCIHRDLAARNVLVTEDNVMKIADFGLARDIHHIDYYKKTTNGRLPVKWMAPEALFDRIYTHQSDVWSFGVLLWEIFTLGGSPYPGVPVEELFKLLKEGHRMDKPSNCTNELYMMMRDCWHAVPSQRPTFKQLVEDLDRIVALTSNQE

[3] = target: T3, Kit (Homo sapiens, UniProt P10721); test: AlphaScreen kinase assay, Kit; details: read-out: IC50, activity toward kinase Kit
T3 construct: P1332.N6 BI PTP KIT M552-K948-X COD; His6 (N); made in house; host or cells: E. coli (PTP1B co-expressed)

[4] = target: T4, Fak (Homo sapiens, UniProt Q05397); test: AlphaScreen kinase assay, Fak; details: read-out: IC50, activity toward kinase Fak
T4 construct: P1358.pFastBacHtb FAK S411-Q686-X; His6 with pFastBacHTb leader (TEV site) (N); made in house; host or cells: Sf9 (baculovirus)
T4 sequence (Q05397 411-686): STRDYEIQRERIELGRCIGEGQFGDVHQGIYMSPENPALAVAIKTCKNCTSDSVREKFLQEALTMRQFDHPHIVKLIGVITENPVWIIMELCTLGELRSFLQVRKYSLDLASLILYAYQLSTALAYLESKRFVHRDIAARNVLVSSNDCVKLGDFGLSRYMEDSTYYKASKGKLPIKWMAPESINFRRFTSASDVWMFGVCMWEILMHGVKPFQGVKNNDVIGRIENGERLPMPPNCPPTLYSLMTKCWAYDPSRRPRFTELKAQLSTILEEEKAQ

[5] = target: T5, Stk6 (Homo sapiens, UniProt O14965); test: Z'-Lyte FRET kinase assay (Invitrogen), Stk6; details: read-out: IC50, activity toward kinase Stk6
T5 construct: purchased Invitrogen (Carlsbad, Calif.), screening service
T5 sequence (O14965 1-403): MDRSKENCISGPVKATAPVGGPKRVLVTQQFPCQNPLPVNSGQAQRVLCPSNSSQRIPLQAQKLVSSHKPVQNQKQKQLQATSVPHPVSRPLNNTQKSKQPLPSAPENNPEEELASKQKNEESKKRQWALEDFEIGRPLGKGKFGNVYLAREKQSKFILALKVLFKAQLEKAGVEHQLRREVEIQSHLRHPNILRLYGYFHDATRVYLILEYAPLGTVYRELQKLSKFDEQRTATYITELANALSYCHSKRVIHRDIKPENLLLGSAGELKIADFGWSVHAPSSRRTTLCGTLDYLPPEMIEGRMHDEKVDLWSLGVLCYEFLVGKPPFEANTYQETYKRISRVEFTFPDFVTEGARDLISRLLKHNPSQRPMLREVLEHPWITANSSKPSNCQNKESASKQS

[6] = target: T6, Ret (Homo sapiens, UniProt P07949); test: AlphaScreen kinase assay, Ret; details: read-out: IC50, activity toward kinase Ret
T6 construct: P1378.pET-SF BI-PTP RET H661-R1012 HIS; made in house
T6 sequence (P07949 with tags, fused parts or gaps): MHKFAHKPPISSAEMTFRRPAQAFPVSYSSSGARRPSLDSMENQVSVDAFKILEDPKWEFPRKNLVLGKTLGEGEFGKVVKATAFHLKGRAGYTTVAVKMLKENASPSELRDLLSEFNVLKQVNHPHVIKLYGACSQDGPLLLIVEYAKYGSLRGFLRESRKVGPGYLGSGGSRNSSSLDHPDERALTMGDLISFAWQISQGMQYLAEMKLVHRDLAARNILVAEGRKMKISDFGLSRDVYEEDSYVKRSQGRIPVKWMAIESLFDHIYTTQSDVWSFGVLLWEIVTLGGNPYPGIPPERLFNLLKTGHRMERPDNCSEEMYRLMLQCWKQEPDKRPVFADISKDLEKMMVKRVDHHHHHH

[7] = target: T7, Kdr (Homo sapiens, UniProt P35968); test: Z'-Lyte FRET kinase assay (Invitrogen), Kdr; details: read-out: IC50, activity toward kinase Kdr
T7 construct: purchased Invitrogen (assay run by Invitrogen)

[8] = target: T8, B-Raf (Homo sapiens, UniProt P15056); test: AlphaScreen kinase assay, B-Raf; details: read-out: IC50, activity toward kinase B-Raf
T8 construct: purchased Upstate Biotechnology
T8 sequence (P15056 whole entry): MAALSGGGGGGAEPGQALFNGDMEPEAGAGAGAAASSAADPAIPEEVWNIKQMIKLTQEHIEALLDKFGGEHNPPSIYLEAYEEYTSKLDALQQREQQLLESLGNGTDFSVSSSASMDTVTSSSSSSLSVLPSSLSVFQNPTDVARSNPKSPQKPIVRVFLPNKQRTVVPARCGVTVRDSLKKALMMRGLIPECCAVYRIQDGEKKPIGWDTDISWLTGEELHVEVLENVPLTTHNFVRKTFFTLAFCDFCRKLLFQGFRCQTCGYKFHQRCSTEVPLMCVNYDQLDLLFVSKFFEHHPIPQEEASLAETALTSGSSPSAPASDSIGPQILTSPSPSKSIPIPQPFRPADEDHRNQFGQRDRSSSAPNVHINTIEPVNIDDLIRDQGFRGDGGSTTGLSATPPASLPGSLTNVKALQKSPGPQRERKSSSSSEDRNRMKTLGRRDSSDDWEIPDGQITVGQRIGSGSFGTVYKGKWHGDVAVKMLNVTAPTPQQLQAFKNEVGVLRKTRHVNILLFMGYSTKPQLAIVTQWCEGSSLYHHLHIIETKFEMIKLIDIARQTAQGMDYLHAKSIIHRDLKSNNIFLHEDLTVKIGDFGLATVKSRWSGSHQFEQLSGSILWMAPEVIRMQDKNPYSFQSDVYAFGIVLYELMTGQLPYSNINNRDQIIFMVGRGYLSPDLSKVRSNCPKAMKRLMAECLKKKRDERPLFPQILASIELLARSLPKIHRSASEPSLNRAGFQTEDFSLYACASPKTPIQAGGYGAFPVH

[9] = target: T9, B-Raf V600E (Homo sapiens, UniProt P15056, V600E); test: AlphaScreen kinase assay, B-Raf V600E; details: read-out: IC50, activity toward kinase B-Raf V600E
T9 construct: P4254. pFastBacBD-CDC37 BRAF D437-K722-X, V600E; His6 with pFastBac HT leader (TEV site) (N); made in house; host or cells: Sf9 (baculovirus; chaperone CDC37 co-expressed)
T9 sequence (P15056 with tags, fused parts or gaps V600E): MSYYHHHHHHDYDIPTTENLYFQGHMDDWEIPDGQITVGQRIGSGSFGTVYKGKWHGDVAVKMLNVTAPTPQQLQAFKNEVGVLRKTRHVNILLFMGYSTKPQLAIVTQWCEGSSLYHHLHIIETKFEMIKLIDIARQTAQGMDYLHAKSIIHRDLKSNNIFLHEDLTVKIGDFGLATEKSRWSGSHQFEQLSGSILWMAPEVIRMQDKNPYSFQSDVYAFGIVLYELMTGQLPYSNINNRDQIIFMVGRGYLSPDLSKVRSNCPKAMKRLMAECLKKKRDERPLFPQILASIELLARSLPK
Description: AlphaScreen assay was used to screen additional kinases. The assay is similarly dependent on the phosphorylation of a peptide substrate. In this assay, an antibody that recognizes phosphorylated substrate is bound to an acceptor bead. The peptide substrate is attached to biotin, which binds to a donor head that contains streptavidin. Thus phosphorylated substrate is bound by antibody and streptavidin, bringing the donor and acceptor heads into close proximity when kinase is not inhibited. The donor produces singlet oxygen which results in emission from the acceptor when they are in close proximity. Conversely, when kinase is inhibited, the donor and acceptor beads are not associated and the emission from the acceptor is reduced.
AlphaScreen assays were done using compounds dissolved in DMSO to a concentration of 20 mM. The compounds were diluted accordingly to the desired final concentrations in each sample well, using 1:3 serial dilution for a total of 8 concentration points. Plates were prepared such that each kinase reaction is 20 μl in 1× kinase buffer, 5% DMSO and 10 μM ATP. After incubation of the kinase reaction for 1 hour at room temperature, 5 μl of donor beads in stop buffer (50 mM EDTA in 1× kinase buffer) was added, the sample was mixed and incubated for 20 minutes at room temperature before adding 5 μl of acceptor beads in stop buffer. The samples were incubated for 60 minutes at room temperature and the signal per well was read on AlphaQuest reader.

[10] = target: T10, Fms (Homo sapiens, UniProt P07333); test: AlphaScreen kinase assay, Fms; details: read-out: IC50, activity toward kinase Fms
T10 construct: purchased Upstate Biotechnology
T10 sequence (P07333 20-972): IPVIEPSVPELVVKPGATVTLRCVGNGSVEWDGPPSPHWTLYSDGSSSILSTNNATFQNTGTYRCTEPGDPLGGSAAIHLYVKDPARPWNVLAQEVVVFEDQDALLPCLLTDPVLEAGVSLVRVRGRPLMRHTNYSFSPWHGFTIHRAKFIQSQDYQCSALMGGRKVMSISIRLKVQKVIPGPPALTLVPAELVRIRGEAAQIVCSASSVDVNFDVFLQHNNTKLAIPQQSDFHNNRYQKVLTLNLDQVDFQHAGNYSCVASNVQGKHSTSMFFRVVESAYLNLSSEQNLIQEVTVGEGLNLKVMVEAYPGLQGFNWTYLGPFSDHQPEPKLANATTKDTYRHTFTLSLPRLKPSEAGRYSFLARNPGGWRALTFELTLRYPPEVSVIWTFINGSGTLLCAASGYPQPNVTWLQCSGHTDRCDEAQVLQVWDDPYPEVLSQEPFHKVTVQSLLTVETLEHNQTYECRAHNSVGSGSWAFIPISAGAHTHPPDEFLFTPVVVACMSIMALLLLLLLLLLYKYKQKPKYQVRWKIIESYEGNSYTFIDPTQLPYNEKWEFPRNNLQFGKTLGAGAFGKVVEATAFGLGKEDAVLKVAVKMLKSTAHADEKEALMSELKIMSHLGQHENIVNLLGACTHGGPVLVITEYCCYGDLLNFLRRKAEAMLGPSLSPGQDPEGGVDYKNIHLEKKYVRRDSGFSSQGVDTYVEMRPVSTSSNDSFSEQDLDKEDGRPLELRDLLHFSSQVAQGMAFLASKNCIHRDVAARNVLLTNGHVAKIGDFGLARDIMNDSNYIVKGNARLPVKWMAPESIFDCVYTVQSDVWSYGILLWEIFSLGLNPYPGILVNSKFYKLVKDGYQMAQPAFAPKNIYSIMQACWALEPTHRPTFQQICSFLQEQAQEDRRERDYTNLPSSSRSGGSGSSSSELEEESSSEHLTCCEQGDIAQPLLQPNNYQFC

[11] = target: T11, c-Raf-1 (Homo sapiens, UniProt P04049); test: AlphaScreen kinase assay, c-Raf-1; details: read-out: IC50, activity toward kinase c-Raf-1
T11 construct: purchased Upstate Biotechnology

[12] = target: T12, Jnk1 (Homo sapiens, UniProt P45983); test: AlphaScreen kinase assay, Jnk1; details: read-out: IC50, activity toward kinase Jnk1
T12 construct: purchased Upstate Biotechnology
T12 sequence (P45983 whole entry): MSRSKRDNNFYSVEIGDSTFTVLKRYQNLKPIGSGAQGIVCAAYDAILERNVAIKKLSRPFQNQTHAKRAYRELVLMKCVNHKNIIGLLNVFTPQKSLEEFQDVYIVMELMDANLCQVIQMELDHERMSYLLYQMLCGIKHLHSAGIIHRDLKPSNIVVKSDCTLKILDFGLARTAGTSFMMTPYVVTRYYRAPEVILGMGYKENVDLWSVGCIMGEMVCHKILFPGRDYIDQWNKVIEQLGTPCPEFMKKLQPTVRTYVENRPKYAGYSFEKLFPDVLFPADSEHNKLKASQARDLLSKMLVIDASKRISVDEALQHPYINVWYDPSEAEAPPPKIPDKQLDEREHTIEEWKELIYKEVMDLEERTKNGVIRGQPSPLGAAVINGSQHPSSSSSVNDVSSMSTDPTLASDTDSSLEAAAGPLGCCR

[13] = target: T13, Jnk3 (Homo sapiens, UniProt P53779); test: AlphaScreen kinase assay, Jnk3; details: read-out: IC50, activity toward kinase Jnk3
T13 construct: purchased Upstate Biotechnology
T13 sequence (P53779 whole entry): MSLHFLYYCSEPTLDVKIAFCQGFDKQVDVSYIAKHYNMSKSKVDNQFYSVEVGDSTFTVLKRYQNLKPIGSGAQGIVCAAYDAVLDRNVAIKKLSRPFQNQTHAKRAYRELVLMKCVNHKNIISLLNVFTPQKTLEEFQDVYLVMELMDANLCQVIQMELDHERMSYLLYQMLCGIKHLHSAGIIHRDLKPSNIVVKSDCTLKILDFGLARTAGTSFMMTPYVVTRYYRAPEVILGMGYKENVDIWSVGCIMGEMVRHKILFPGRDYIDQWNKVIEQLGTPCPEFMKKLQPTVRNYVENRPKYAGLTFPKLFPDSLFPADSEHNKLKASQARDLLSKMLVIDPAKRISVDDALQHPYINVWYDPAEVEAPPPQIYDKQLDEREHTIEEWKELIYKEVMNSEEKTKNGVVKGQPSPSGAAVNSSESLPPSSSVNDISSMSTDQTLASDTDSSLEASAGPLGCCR

[14] = target: T14, Src (Homo sapiens, UniProt P12931); test: AlphaScreen kinase assay, Src; details: read-out: IC50, activity toward kinase Src
T14 construct: P1144. pET-N6 BI-PTP SRC V86-L536-X; made in house
T14 sequence (P12931 with tags, fused parts or gaps): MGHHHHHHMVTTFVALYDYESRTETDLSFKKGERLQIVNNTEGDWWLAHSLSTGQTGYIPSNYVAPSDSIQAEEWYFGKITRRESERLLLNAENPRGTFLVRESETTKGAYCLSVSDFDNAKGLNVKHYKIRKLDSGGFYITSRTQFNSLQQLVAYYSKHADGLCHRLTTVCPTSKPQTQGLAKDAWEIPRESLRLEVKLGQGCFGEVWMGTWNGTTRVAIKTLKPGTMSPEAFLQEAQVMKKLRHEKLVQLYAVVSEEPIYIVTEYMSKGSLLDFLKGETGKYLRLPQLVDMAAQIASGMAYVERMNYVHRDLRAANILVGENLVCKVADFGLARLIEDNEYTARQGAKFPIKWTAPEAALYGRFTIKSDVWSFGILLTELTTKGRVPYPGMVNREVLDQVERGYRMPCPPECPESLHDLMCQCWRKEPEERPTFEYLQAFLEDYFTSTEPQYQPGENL

[15] = target: T15, Flt1 (Homo sapiens, UniProt P17948); test: AlphaScreen kinase assay, Flt1; details: read-out: IC50, activity toward kinase Flt1
T15 construct: P1826.pETN6 BI-PTP FLT1 M799-D1165-X WT; His6 (N); made in house; host or cells: E. coli (PTP1B co-expressed)
T15 sequence (P17948 with tags, fused parts or gaps): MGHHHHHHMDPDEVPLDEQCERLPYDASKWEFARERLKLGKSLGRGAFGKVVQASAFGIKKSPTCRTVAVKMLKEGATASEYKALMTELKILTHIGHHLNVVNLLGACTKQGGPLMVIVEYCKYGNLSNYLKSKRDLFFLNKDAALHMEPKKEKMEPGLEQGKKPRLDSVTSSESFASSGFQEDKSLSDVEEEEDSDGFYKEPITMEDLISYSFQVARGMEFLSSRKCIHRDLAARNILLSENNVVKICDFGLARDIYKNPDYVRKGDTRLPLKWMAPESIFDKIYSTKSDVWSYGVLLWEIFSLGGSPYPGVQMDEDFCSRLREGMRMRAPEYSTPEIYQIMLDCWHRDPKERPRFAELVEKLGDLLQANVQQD

Measured: pIC50

T1 sequence (Q06187 whole entry): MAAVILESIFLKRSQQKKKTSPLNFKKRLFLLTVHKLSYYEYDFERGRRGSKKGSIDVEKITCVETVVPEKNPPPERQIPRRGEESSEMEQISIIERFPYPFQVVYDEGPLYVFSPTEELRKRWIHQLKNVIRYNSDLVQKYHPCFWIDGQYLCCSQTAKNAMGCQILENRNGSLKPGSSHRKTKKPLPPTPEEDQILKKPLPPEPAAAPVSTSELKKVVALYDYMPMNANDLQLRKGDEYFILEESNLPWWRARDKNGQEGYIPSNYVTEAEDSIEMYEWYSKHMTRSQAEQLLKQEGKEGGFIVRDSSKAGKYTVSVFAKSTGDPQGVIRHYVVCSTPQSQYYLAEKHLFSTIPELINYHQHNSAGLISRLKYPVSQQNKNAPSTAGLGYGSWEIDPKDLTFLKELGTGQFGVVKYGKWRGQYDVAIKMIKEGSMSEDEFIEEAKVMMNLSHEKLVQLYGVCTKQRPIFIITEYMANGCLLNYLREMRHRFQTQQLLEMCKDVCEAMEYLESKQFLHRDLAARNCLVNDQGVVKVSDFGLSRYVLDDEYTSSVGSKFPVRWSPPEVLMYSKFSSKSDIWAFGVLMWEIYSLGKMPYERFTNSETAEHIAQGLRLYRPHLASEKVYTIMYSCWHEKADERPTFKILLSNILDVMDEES

Cc1ccccc1C(=O)c1c[nH]c2ncc(Br)cc12 [Compound P-0217]
≥ 5.00: [1] | [2] | [3]

O=Cc1ccsc1-c1ccnc2[nH]ccc12 [Compound P-0276]
≥ 5.00: [4] | [5]

CC(=O)Nc1cccc(-c2ccnc3[nH]cc(C(=O)c4cc(F)ccc4F)c23)c1 [Compound P-0280]
≥ 5.00: [1] | [6]

Cc1ccc(F)cc1C(=O)c1c[nH]c2ncc(-c3ccc(Cl)cc3)cc12 [Compound P-0304]
≥ 5.00: [1] | [2] | [3] | [6]

CC(=O)Nc1cccc(-c2ccnc3[nH]cc(C(=O)c4ccccc4C)c23)c1 [Compound P-0314]
≥ 5.00: [1] | [6]

O=C(c1ccc(Cl)cc1)c1c[nH]c2ncc(-c3ccsc3)cc12 [Compound P-0321]
≥ 5.00: [1] | [2] | [7] | [3] | [6]

COc1ccc(F)c(C(=O)c2c[nH]c3ncc(-c4ccccc4)cc23)c1 [Compound P-0351]
≥ 5.00: [8] | [9] | [1] | [2] | [10] | [6]

O=C(c1c(F)ccc(NCc2ccccc2)c1F)c1c[nH]c2ncc(-c3cccnc3)cc12 [Compound P-0807, (3-Benzylamino-2,6-difluoro-phenyl)-(5-pyridin-3-yl-1H-pyrrolo[2,3-b]pyridin-3-yl)-methanone]
not listed: [3] | [4] | [5] | [7] | [15]
≥ 5.00: all other assays above

O=C(c1c(F)ccc(NS(=O)(=O)c2cccs2)c1F)c1c[nH]c2ncc(Cl)cc12 [Compound P-1267, Thiophene-2-sulfonic acid [3-(5-chloro-1H-pyrrolo[2,3-b]pyridine-3-carbonyl)-2,4-difluoro-phenyl]-amide]
≥ 5.00: [8] | [9] | [1] | [4] | [2] | [10] | [3] | [14]

COc1cccc(C(=O)c2c[nH]c3ncc(-c4cccnc4)cc23)c1F [Compound P-1343, (2-Fluoro-3-methoxy-phenyl)-(5-pyridin-3-yl-1H-pyrrolo[2,3-b]pyridin-3-yl)-methanone]
≥ 5.00: [8] | [9] | [1] | [2] | [10] | [12] | [3] | [14]

CC(=O)Nc1cccc(-c2cnc3[nH]cc(Cc4ccccc4F)c3c2)c1 [Compound P-1347]
≥ 5.00: [8] | [9] | [4] | [2] | [12] | [13] | [3] | [14]

NC(=O)c1ccc(-c2cnc3[nH]cc(Cc4ccccc4F)c3c2)cc1 [Compound P-1348]
≥ 5.00: [8] | [9] | [4] | [2] | [12] | [13] | [3] | [14]

NC(=O)c1cccc(-c2cnc3[nH]cc(C(=O)c4ccccc4O)c3c2)c1 [Compound P-1384]
not listed: [1] | [5] | [6] | [7] | [11] | [15]
≥ 5.00: all other assays above

COc1ccc(F)c(C(=O)c2c[nH]c3ncc(-c4ccncc4)cc23)c1F [Compound P-1389, (2,6-Difluoro-3-methoxy-phenyl)-(5-pyridin-4-yl-1H-pyrrolo[2,3-b]pyridin-3-yl)-methanone]
≥ 5.00: [8] | [9] | [1] | [11] | [4] | [2] | [10] | [3]

COc1cc(OC)cc(C(=O)c2c[nH]c3ncc(-c4cccc(NC(C)=O)c4)cc23)c1 [Compound P-1420, N-{3-[3-(3,5-Dimethoxy-benzoyl)-1H-pyrrolo[2,3-b]pyridin-5-yl]-phenyl}-acetamide]
≥ 5.00: [8] | [9] | [1] | [2] | [15] | [10] | [3]

O=C(c1c(Cl)cccc1Cl)c1c[nH]c2ncc(-c3cccnc3)cc12 [Compound P-1479]
≥ 5.00: [8] | [9] | [1] | [4] | [2] | [10] | [3] | [14]
